Results published in patent US8357413B2, “Process for the disinfection and/or preservation of harvested plant material” (Solvay (Societe Anonyme), priority 2003, dated 2013).

System: aerobic micro-organism activity
Test: Example 4: aerobic stability of forage (temperature rise in insulated boxes)
Procedure: The treatments shown in examples 1 and 2 were also evaluated for their aerobic stability i.e. under conditions representing opening of the clamp to use the forage as feed thus allowing air to enter the clamp. In this case comparisons were made with untreated forage as in examples 1 and 2 and also with forage treated with a typical acid product, formic acid (85% w/w) applied at 2.5 liters per tonne of grass. 750 g of the forages were stored in insulated boxes placed in a controlled environment at 20-22° C. A temperature probe was inserted into each box linked to a data logger to monitor temperature changes hourly over a 6 day period.

In the case of `O=CO` [Formic Acid, formic acid], the “Temperature Day 0” value (750 g forage in insulated boxes at 20-22° C., Day 0) is reported as 17.8 °C, the “Temperature Day 6” value (750 g forage in insulated boxes at 20-22° C., Day 6) is reported as 20.5 °C and the Temperature increase (Day 0 to Day 6) is reported as “+2.7 °C”.
